From patent US12398110B2, “Second generation inhibitors of mitochondrial permeability transition pore with improved plasma stability” (Oregon Health & Science University, priority 2019, dated 2025)
Read-outs that look alike come from different tables or passages of the source.

Legend:
Type in all cases: biochemical
mtPTP [1] = assay: Ca2+ retention capacity (CRC) of isolated mouse liver mitochondria
Protocol: CRC determines the Ca^2+ threshold required for mtPTP activation; inhibitors of mtPTP are expected to increase the Ca^2+ threshold required for mtPTP induction. Extramitochondrial Ca^2+ changes are detected using the membrane-impermeant Ca^2+ indicator, Calcium Green-5N.
(§1) Isolation of mitochondria. C57BL6/N mouse liver mitochondria were prepared from 2 to 6 month old male mice by standard differential centrifugation. Mice fed ad libitum were euthanized with CO2 followed cervical dislocation, their livers were existed and placed in a glass beaker containing ice-cold isolation buffer (IB: 0.25 m sucrose, 10 mm Tris-HCl, 0.1 mm EGTA-Tris, pH 7.4) supplemented with fatty acid free bovine serum albumin. Livers were then cut into small pieces with scissors, rinsed with ice-cold IB, and passed through a pre-chilled Potter homogenizer with Teflon pestle. The homogenate (˜30 mL per liver) was transferred to centrifuge tubes, and unbroken cells and nuclei were removed by centrifugation at 700 g for 10 min at 4° C. The supernatant containing mitochondria and other organelles was transferred to new tubes and centrifuged at 6000 g for 10 min at 4° C. The resulting supernatant was discarded and mitochondrial pellet was carefully suspended in ice-cold IB and spun at 9500 g for 5 min at 4° C. The pellet was suspended in IB to give a protein concentration of ˜60-80 mg/mL and stored on ice. Experiments were started immediately and completed within 5 h. Protein concentration was determined by the Biuret method.
Assessment of Ca^2+ retention capacity (CRC). CRC of isolated mouse liver mitochondria was assessed as follows: First, 0.1 mL of SAB were dispensed to a 96-well black assay plate in the presence of 2% DMSO (control wells) or varying concentrations of test compounds, in 1:2 serial dilutions. Then, 0.1 mL of 0.5 mg/mL mitochondria in SAB devoid of respiratory substrates, but supplemented with 1 μm Calcium Green-5N were added to all wells of the assay plate. A train of 10 μm CaCl2 pulses was added at 2 min intervals, and fluorescence intensity (ex/em 485/535 nm) was read on Tecan Infinite F200 plate reader.

mtPTP [2] = assay: Ca2+ overload induced mitochondrial swelling in isolated mouse liver mitochondria; conditions: for mtPTP inhibitory activity (in words): SAR discussion of Table 2
Protocol: We next sought to evaluate the effects of TR001-13 on mtPTP activity in vitro. This was performed on isolated mitochondria. In isolated mitochondria induction of mtPTP opening leads to mitochondrial swelling due to the oncotic pressure gradient created by matrix proteins >1.5 kDa that cannot diffuse through the open pore. In in vitro experiments, where isolated mitochondria are routinely suspended in sucrose-based isosmotic solutions, the change in mitochondrial size can be measured spectrometrically by detecting the decrease in light scattering at 540 nm.
as §1
Assessment of mitochondrial swelling. Changes in mitochondrial volume of isolated mouse liver mitochondria were followed in a 96-well clear assay plate at a final volume of 0.2 mL and 0.25 mg/mL mitochondrial protein. Absorbance was read for 30 min at 540 nm on a Tecan Infinite F200 plate reader. Activity of test compounds was addressed as follows: First, 0.1 mL of sucrose assay buffer (SAB: 0.250 m sucrose, 10 mm MOPS-Tris, 0.01 mm EGTA-Tris, 1.0 mm phosphoric acid-Tris, 10 mm glutamate and 5 mm malate, pH 7.4) supplemented with twice the CaCl2 concentration required to induce mitochondrial swelling (which was determined for each preparation of mitochondria, typically 50 μm) was dispensed to the assay plate. A set of wells also contained 2.0 mm EGTA (to prevent mitochondrial swelling). The test wells contained a range of concentrations (in 1:2 serial dilutions) of the compounds of interest or 2% DMSO. Experiments were started by the addition of 0.1 mL of mitochondrial suspension (0.5 mg/mL mitochondria in SAB without respiratory substrates) to the assay plates. EC50s±SE were determined with OriginPro software by applying Hill1 function fitting algorithm on average concentration response data of n=3-41 independent preparations.

[3] = system: inner mitochondrial membrane potential; assay: Rhodamine 123 (Rh123) uptake, mitochondrial membrane potential of isolated mouse liver mitochondria
Description: We next evaluated the mitochondrial toxicity of the new triazole analogs by testing their ability to interfere with accumulation of the membrane-permeant cationic fluorescent dye rhodamine 123 (Rh123). The mitochondrial uptake of positively charged Rh123 is driven by the inside negative IMM potential, which is built by the respiratory chain or maintained by ATP hydrolysis if certain conditions are met. […] It should be noted, however, that toxicity for these compounds only occurs at ˜10-1000-fold higher concentrations compared to mtPTP inhibition, providing a good therapeutic window.
Assessment of mitochondrial membrane potential. Mitochondrial membrane potential—to evaluate toxicity—of isolated mouse liver mitochondria was assessed based on fluorescence quenching of the cationic fluorescent dye Rh123 upon its accumulation into mitochondrial matrix due to inside negative membrane potential. Compounds that interfere with the build-up or maintenance of IMM potential would shift Rh123 fluorescence to higher values compared to DMSO treated samples. Uncoupler FCCP was used to account for nonspecific fluorescence. First, 0.1 mL of SAB was dispensed to a 96-well black assay plate. A set of wells also contained 0.8 μm FCCP (to prevent Rh123 uptake). The test wells contained a range of concentrations (in 1:2 serial dilutions) of the compounds of interest or 2% DMSO. Then, 0.1 mL of 0.5 mg/mL mitochondria in SAB devoid of respiratory substrates but supplemented with 0.8 μm Rh123 were added to all wells of the assay plate. Fluorescence intensity (ex/em 485/535 nm) was read on a Tecan Infinite F200 plate reader for 7 min and value at 5 min was considered for analysis. EC50s±SE were determined with OriginPro software by applying Hill1 function fitting algorithm on average concentration response data of n=3 independent preparations.

[4] = Mouse Liver Mitochondria (MLM), comparative examples
[5] = Mouse Liver Mitochondria (MLM), comparative examples, read-out: Swelling EC50
[6] = Mouse Liver Mitochondria (MLM), comparative examples, read-out: Rh123 EC50
[7] = compound treated CRC to DMSO treated CRC0 ratio, 1.25 μM, average ± SEM, n = 3-25
[8] = isolated mouse liver mitochondria, average ± SEM, n = 3-41, read-out: Mitochondrial Swelling EC50
[9] = interference with Rh123 uptake to mitochondria, average ± SEM, n = 3, read-out: Rh123 uptake EC50

Row | Structure (SMILES) | CRC/CRC0 at 1.25 μM (mtPTP [1]; [4]) | EC50 (mtPTP [2]; [5]) [µM] | EC50 [3, 6] [µM] | also measured
1 | C#Cc1ccc(C)c(NC(=O)c2cn(-c3ccc(F)c(O)c3)nn2)c1 | 1.3 | 7 | > 40 | 
2 | Cc1ccc(Cl)cc1NC(=O)c1cn(-c2cccc(O)c2F)nn1 [TR003, N-(5-chloro-2-methylphenyl)-1-(2-fluoro-3-hydroxyphenyl)-1H-1,2,3-triazole-4-carboxamide] |  |  |  | CRC/CRC0 at 1.25 μM (mtPTP [1]; [7]): 7.4 ± 0.5; EC50 (mtPTP [2]; [8]): 0.152 ± 0.036 µM; fold decrease in activity compared to TR001 (mtPTP [2]; mitochondrial swelling, vs TR001): 5 fold; EC50 [3, 9]: 29.3 ± 3.3 µM
3 | Cc1ccc(Cl)cc1NC(=O)c1cn(-c2cc(O)cc(F)c2)nn1 [TR002, N-(5-chloro-2-methylphenyl)-1-(3-fluoro-5-hydroxyphenyl)-1H-1,2,3-triazole-4-carboxamide] |  |  |  | CRC/CRC0 at 1.25 μM (mtPTP [1]; [7]): 12.6 ± 0.6; mtPTP inhibitory activity (in words) (mtPTP [2]): most potent analog; EC50 (mtPTP [2]; [8]): 0.01 ± 0.002 µM; EC50 [3, 9]: 14.1 ± 1.2 µM
4 | Cc1ccc(Cl)cc1NC(=O)c1cn(-c2cccc(O)c2Cl)nn1 [drawing 70] | 1.2 | > 20 | > 40 | 
5 | Cc1ccc(Cl)cc1NC(=O)c1cn(-c2ccc3[nH]c(=O)[nH]c3c2)nn1 | 1 | > 20 |  | 
6 | Cc1ccc(Cl)cc1NC(=O)c1cn(-c2ccc(Br)c(NS(C)(=O)=O)c2)nn1 | 1 | > 20 |  | 
7 | Cc1ccc(Cl)cc1NC(=O)c1cn(-c2cc(O)cc(Cl)c2)nn1 [drawing 69] | 7.3 | 0.028 | > 40 | 
8 | Cc1ccc(Cl)cc1NC(=O)c1cn(-c2ccc(Cl)c(O)c2)nn1 [drawing 59] | 3.9 | 0.135 | > 40 | 
9 | Cc1ccc(-n2cc(C(=O)Nc3cc(Cl)ccc3C)nn2)cc1O [TR011, N-(5-chloro-2-methylphenyl)-1-(3-hydroxy-4-methylphenyl)-1H-1,2,3-triazole-4-carboxamide] |  |  |  | CRC/CRC0 at 1.25 μM (mtPTP [1]; [7]): 1.4 ± 0.1; mtPTP inhibitory activity (in words) (mtPTP [2]): inactive; EC50 (mtPTP [2]; [8]): > 20 µM; EC50 [3, 9]: > 40 µM
10 | CC(=O)c1ccc(C)c(NC(=O)c2cn(-c3ccc(F)c(O)c3)nn2)c1 | 1.4 | 5.2 | > 40 | 
11 | CCCOc1ccc(Cl)cc1NC(=O)c1cn(-c2ccc(F)c(O)c2)nn1 | 1.8 | 8.7 | > 40 | 
12 | Cc1ccc(Cl)cc1NC(=O)c1cn(-c2cc(O)cc(F)c2)nn1 [drawing 52] | 13.09 | 0.01 | 14 | 
13 | C#Cc1ccc(Cl)cc1NC(=O)c1cn(-c2ccc(F)c(O)c2)nn1 | 3.7 | 0.513 | > 40 | 
14 | Cc1ccc(Cl)cc1NC(=O)c1cn(-c2ccc(F)c(NC(=O)C(F)(F)F)c2)nn1 | 1 | > 20 |  | 
15 | Cc1ccc(Cl)cc1NC(=O)c1cn(-c2cccc(O)c2Cl)nn1 [TR007, N-(5-chloro-2-methylphenyl)-1-(2-chloro-3-hydroxyphenyl)-1H-1,2,3-triazole-4-carboxamide] |  |  |  | CRC/CRC0 at 1.25 μM (mtPTP [1]; [7]): 1.2 ± 0.1; EC50 (mtPTP [2]; [8]): > 20 µM; EC50 [3, 9]: > 40 µM
16 | CC(=O)Oc1cc(-n2cc(C(=O)Nc3cc(Cl)ccc3C)nn2)ccc1F | 4.5 | 0.083 | > 40 | 
17 | Cc1ccc(Cl)cc1NC(=O)c1cn(-c2cc(F)cc(OC(=O)N(C)C)c2)nn1 | 1.5 | > 20 |  | 
18 | CC(=O)Nc1cc(-n2cc(C(=O)Nc3cc(Cl)ccc3C)nn2)ccc1F | 1 | > 20 |  | 
19 | Cc1ccc(Cl)cc1NC(=O)c1cn(-c2ccc(F)c(N)c2)nn1 | 1 | > 20 |  | 
20 | Cc1ccc(Cl)cc1NC(=O)c1cn(-c2ccc(F)c(NS(=O)(=O)C(F)(F)F)c2)nn1 | 1 | > 20 |  | 
21 | Cc1ccc(Cl)cc1NC(=O)c1cn(-c2ccc(F)c(OC(=O)N(C)C)c2)nn1 | 3.9 | 0.153 |  | 
22 | Cc1ccc(Cl)cc1NC(=O)c1cn(-c2cccc(C(=O)O)c2)nn1 | 1 | > 20 |  | 
23 | C#Cc1ccc(C(C)=O)cc1NC(=O)c1cn(-c2ccc(F)c(O)c2)nn1 |  | > 20 |  | 
